Melting point data for 66 compounds are collected here from a melting point compilation (Tetko et al.; mined from patent text by program, amines drawn as free bases though some values may be those of a salt).

A value given as a limit tells only on which side of the number the result lay.

With `O=C1c2ccc(Cl)cc2C(O)N1c1ccc2ccc(Cl)nc2n1` (stereo unspecified), the melting point (as a rule, the temperature, or range, at which the solid turns liquid) was in the range of 220 to 230 °C.
As for `CN(CCO)Cc1cc(C(=O)c2ccccc2)cc(C(C)(C)C)c1O`, the figure is 118 to 119 °C.
As for `Cc1ccc(-c2nn3cccnc3c2CC(=O)O)cc1`, the figure is 170 to 171 °C; as for `COc1cc2cc3ncc(C#N)c(Nc4ccc(F)c(Cl)c4)c3cc2cc1OC`, over 280 °C.
As for `CCOc1ccc(C=[N+]([O-])C2CCCC2)cc1`, the figure is 95.1 °C.
In the case of `COc1cc([N+](=O)[O-])c(O)c(OC)c1OC`, the melting point was in the range of 72 to 73 °C.
As for `CCCCCn1c(C)c(C(=O)c2ccc(Cl)c3ccccc23)c2cccc(OC)c21`, the figure is 112 °C; as for `CCOC(=O)[C@H](CC(C)C)NC(=O)[C@@H](NC(=O)c1ccccc1)C(C)C`, 159 to 160 °C.
On to `CCOC(=O)CN(c1cccc2cc(-c3nccs3)[nH]c12)S(=O)(=O)c1cccs1`, for which the melting point lay within 135 to 137 °C.
As for `C#Cc1cc(OC)c(OC)c(OC)c1`, the figure is 68 to 70 °C; as for `COc1cc(-c2oc3ccc(CC(=O)NC(CC(C)C)C(N)=O)cc3c2SC)ccc1O` (stereo unspecified), 220 °C.
Under `Clc1ccc2c(c1)NC(c1ccncc1)c1cc(Cl)ccc1O2` (stereo unspecified) stands 202 to 205 °C; under `COc1ccc(N2CCCn3c2nc2c(Cl)ccc(C(OCC(F)(F)F)C4CC4)c23)c(C)n1` (stereo unspecified), 158 to 160 °C; under `C=CCCN1C(=O)C2C3CCC(O3)C2C1=O` (stereo unspecified), 64 to 65 °C.
As for `COC(=O)C(Cl)(Cl)Cc1c(Cl)cc(Cl)cc1Cl`, the figure is 56 to 57 °C; as for `CCCCCCCCCCCCCCNC1=NS(=O)(=O)c2sc(Cl)cc2N1`, 157 to 158 °C.
`O=C1CCC2(Cc3ccc(Br)cc3)C(=O)N(c3cc(Cl)cc(Cl)c3)C(=O)N12` (stereo unspecified) registered a melting point of 230 °C.
As for `O=C1CCC(c2ccc(Cl)cc2)CN1CNC(=S)NCN1CC(c2ccc(Cl)cc2)CCC1=O` (stereo unspecified), the figure is 212 to 213 °C; as for `COc1ccc(OCCOc2ccc(C(=O)C(=O)O)cc2)cc1`, 138 to 139 °C; as for `Nc1cnc(N2CCN(CCCC(=O)c3ccc(F)cc3)CC2)cc1N`, 166 to 169 °C.
Compound `C(=NC1CN2CCC1CC2)c1ccc(-c2ccccc2)cc1` (stereo unspecified) yielded a melting point of 82 to 84 °C.
Under `CN1CCC(c2c[nH]c3ccc(Sc4ccccn4)cc23)CC1` stands 83 °C; under `Cc1nc(N)c2nc(C)n(CCNS(C)(=O)=O)c2c1C`, over 250 °C; under `CCCCN1CCN2c3ccc(C)cc3C(c3ccco3)=[N+]([O-])CC2C1` (stereo unspecified), 104 to 106 °C.
`COc1ccc(C(=O)Nc2c(Cl)cncc2Cl)c2[nH]cnc12`: the melting point lay in the range of 292 to 293 °C.
For `CNC(=O)n1cc2c(n1)-c1ccc(Cl)cc1C(c1ccccc1F)=NC2`, the melting point was in the range of 192 to 193 °C.
Under `COP(=O)(CN[C@@H](Cc1ccc(-c2ccccc2)cc1)C(=O)O)OC` stands 133 to 136 °C.
Under `COCCc1nnc(NC(=O)C2c3ccccc3Oc3ccccc32)o1` stands 105 to 106 °C; under `CC(=O)OC(C)(C)C(=O)Nc1ccc(Sc2ccc(N)cc2)cc1Cl`, 130 to 132 °C.
Under `CCCn1c(=O)oc2cc(F)c([N+](=O)[O-])cc21` stands 148 to 152 °C; under `CCCCNC(=O)NS(=O)(=O)c1ccc(CCNC(=O)N2Cc3ccc(C)cc3C2=O)cc1`, 169 to 171 °C; under `OC(c1ccccc1)c1nc(-c2ccncc2)cs1` (stereo unspecified), 146 to 147 °C.
Take `Cc1ccc(S(=O)(=O)OCC2Cc3cccc([N+](=O)[O-])c3O2)cc1` (stereo unspecified): the melting point fell in the range of 129 to 131 °C.
As for `CC(=O)N1CCC(CNCc2ccc(C=CC(=O)Nc3ccc(-c4ccc(Cl)cc4)cc3)cc2)CC1`, the figure is 225 to 226 °C.
Under `O=C(O)CCCCCc1cccnc1` stands 100 to 105 °C; under `O=C1Nc2cccc(I)c2C(=O)N2CCC[C@@H]12`, 212 to 215 °C; under `COC(=O)c1ccc2c(c1)Nc1nccnc1S2`, 265 to 268 °C.
Under `Fc1ccc(C(c2ccccc2)(c2ccccc2F)n2ccnc2)cc1` (stereo unspecified) stands 164 to 167 °C; under `CCOP(=O)(OCC)c1cc2nc(OCc3ccccc3)c(OCc3ccccc3)nc2c2c1CN(C)CC2`, 104 °C.
Turning to `Cc1ccccc1C(Oc1cc(OCc2ccc3ocnc3c2)ccc1C#N)C(=O)O` (racemic), the melting point was 189 to 191 °C.
Under `COC(=O)Oc1ccc(N=Cc2ccc(C#N)cc2)cc1` stands 145 to 146 °C.
Under `COC(=O)c1ccc(CNC(C)=O)c([N+](=O)[O-])c1` stands 100 to 102 °C.
Under `CC(=O)N1CCC(Nc2ccccc2Oc2ccc(Cl)cc2Cl)CC1` stands 145 to 146 °C; under `O=S(=O)(N[C@H](CO)c1ccccc1)c1ccc(Cl)cc1`, 127 to 128 °C; under `C[C@@H]1Cc2cc3c(cc2C(c2ccc(Cl)cc2)=NN1C1=NCCS1)OCO3`, 216 to 219 °C.
`O=C(N[C@H]1CN2CCC1CC2)C(O)(c1ccccc1)C1CCCC1` (stereo partly specified): the melting point lay within 69.8 to 73.3 °C.
`N#Cc1cc(F)c(-n2nc3ccc(Cl)cn3c2=O)cc1F`: the melting point was over 230 °C.
The compound `O=C(Nc1ccc(C(=O)N2CCc3sc(Cc4c[nH]cn4)nc3-c3ccccc32)cc1)c1ccccc1-c1ccccc1` came in with a melting point of 192 to 195 °C.
Under `N[C@@H]1C[C@H](C2CCCCC2)c2ccccc2NC1=O` (relative stereo) stands 96 to 98 °C.
In turn, `C=CCN1C2CCC1C1CCC2N1C(c1ccc(C(=O)NC2CCCCC2)cc1)c1cccc(OC)c1` (stereo unspecified) gave a melting point of 58 to 60 °C.
As for `Brc1ccc(-c2cc(-c3cccc(Br)c3)no2)cc1`, the figure is 169 °C.
In turn, `CCCCCCCCCCC(=O)C(=O)CCCCCCCCCC` displayed a melting point of 68.5 to 69 °C.
Under `O=C1NCCc2[nH]c3c(F)ccc(F)c3c21` stands 221 to 223 °C; under `COc1ccc(O)c(Cc2cccc(C(F)(F)F)c2)c1`, 188 to 190 °C.
As for `CCCCCCCCCCCCCCCc1cccc(OC)c1C(=O)O`, the figure is 65 to 72 °C; as for `CN1CCN(c2cc(Cl)cc3c2c(=O)n(CC2CCCCC2)c(=O)n3Cc2ccccc2)CC1`, 163 to 169 °C; as for `CC1(NCC(O)c2ccc3nnnn3c2)CC1` (stereo unspecified), 72 to 73 °C.
As for `COc1cccc(-c2cc3nccnc3[nH]2)c1`, the figure is 194 to 196 °C.
In turn, `O=C(OCc1ccccc1)N1CCSC1=S` had a melting point of 72 °C.
As for `CN1CCN(c2ccc3[nH]c(=O)oc(=O)c3c2)CC1`, the figure is 285 °C.
As for `N#CC[C@H]1CCn2c(cc3ccccc32)C1`, the figure is 100 to 101 °C.
Under `Nc1ncc2ncnc(Nc3ccc(F)c(Cl)c3)c2n1` stands 300 to 301 °C; under `COc1ccccc1C(=O)CC(=O)c1ccccc1O`, 80 to 84 °C; under `N#Cc1cc(-c2ccccc2)cnc1Cl`, 149 to 150 °C.
Take `COC(=O)c1ccccc1C=Cc1ccc(Br)cc1`: the melting point fell in the range of 104 to 106 °C.
As for `COc1cccc(C2(O)c3cccc(O)c3C(=O)c3c(O)cccc32)c1`, the figure is 187 °C.
